Experimental data reported in US20210179561A1, “ACID ADDITION SALTS OF APOMORPHINE, PHARMACEUTICAL COMPOSITIONS CONTAINING THE SAME, AND METHODS OF USING THE SAME” (Sunovion Pharmaceuticals Inc., priority 2018, published 2021).
Structures can show the parent of a compound that is named as a salt.

Columns and labels:
[1] = Intrinsic dissolution (Wood's apparatus, HPLC) in pH 4.5 acetate buffer or artificial saliva; settings: for dissolution rates compared with apomorphine glycolate and apomorphine sulfamate: in words
Procedure: Samples were quantitated using HPLC.
Dissolution experiments were performed using a VanKel VK7010 dissolution tester equipped with a VK750D heater/circulator. […] Approximately 150 mg of acid addition salt of apomorphine salt were compressed with an applied load of approximately 1000 pounds for 1 minute in the Wood's apparatus using a hydraulic press. The dissolution medium was either pH 4.5 acetate buffer or artificial saliva. The medium (900 mL) was equilibrated to 37° C.±0.5° C. and degassed by sparging with helium for ca. 2 minutes at the start of each experiment. The disks were rotated at 75 rpm. Sampling of 1 mL aliquots was performed at the given timepoints using a 10 mL syringe equipped with a stainless steel cannula.
The sample aliquots were analyzed by HPLC for acid addition salt of apomorphine content. HPLC analyses were performed using an Agilent 1100 series liquid chromatograph equipped with a diode array or variable wavelength detector, degasser, quaternary pump, and an autosampler. The chromatographic column was a 4.6×50 mm Luna C18(2) column with 5 μm packing (Phenomenex). The column temperature was set to 25.0° C., and the detector wavelength was 274 nm. The autosampler temperature was set to 5.0° C. The injection volume was 25.0 μL. Mobile phase was 80:20 0.2% trifluoroacetic acid:acetonitrile.
Intrinsic dissolution experiments were conducted in duplicate for apomorphine hydrochloride salt in pH 4.5 acetate buffer and artificial saliva. Aliquots (1 mL) were drawn from the dissolution vessel at time intervals indicated in Table 6, transferred to an HPLC vial, and the dissolution values (mass per unit area) of the apomorphine salt was determined for each aliquot (see Table 6). The determined dissolution values were plotted against the time intervals, and the slope of the linear curve was determined. This slope corresponds to the calculated intrinsic dissolution rate (IDR) for the apomorphine salt.

physchem = settings: water
[2] = Dynamic vapor sorption/desorption (DVS); format: physicochemical; settings: for DVS weight change at 5% equilibration: 5% RH equilibration; for DVS weight loss from 95 to 5% RH: desorption 95 to 5% RH; for DVS weight gain from 5 to 95% RH: sorption 5 to 95% RH
Procedure: Dynamic vapor sorption (DVS) data were collected on a VTI SGA-100 Vapor Sorption Analyzer. NaCl and PVP were used as calibration standards. Samples were not dried prior to analysis. Sorption and desorption data were collected over a range from 5% to 95% RH at 10% RH increments under a nitrogen purge. The equilibrium criterion used for analysis was less than 0.0100% weight change in 5 minutes with a maximum equilibration time of 3 hours. Data were not corrected for the initial moisture content of the samples.

[3] = Approximate aqueous solubility of apomorphine salts; settings: water
[4] = solution from aqueous solubility test
[5] = Artificial saliva, 37° C., Table 5 (mean of two tests except glycolate)
[6] = pH 4.5 acetate buffer, 37° C., Table 5 (mean of two tests except glycolate)

Compound | IDR [1, 5] | dissolution rates compared with apomorphine glycolate and apomorphine sulfamate [1] | IDR [1, 6] | DVS weight change at 5% equilibration [2] | DVS weight loss from 95 to 5% RH [2] | DVS weight gain from 5 to 95% RH [2] | Approximate Aqueous Solubility [3] | further results
CN1CCc2cccc3c2[C@H]1Cc1ccc(O)c(O)c1-3 [Hydrochloride, apomorphine hydrochloride, reference compound] | 0.582 mg/cm^2/min | significantly lower | 2.643 mg/cm^2/min |  |  |  |  | solubility (physchem): ~21 mg/mL
CC(C)C(=O)O.CN1CCc2cccc3c2C1Cc1ccc(O)c(O)c1-3 (stereo not shown) [Isobutyrate, apomorphine isobutyrate] | 0.305 mg/cm^2/min | significantly lower | 1.576 mg/cm^2/min | 0.0% | 0.2% | 0.1% |  | 
apomorphine glutarate |  |  |  |  |  |  | 3 mg/mL | Approximate pH of Aqueous Solution [4]: 6
apomorphine glycolate | 10.862 mg/cm^2/min |  | 34.775 mg/cm^2/min | 0.0% | 0.5% | 0.5% |  | Dissolution in pH 4.5 Acetate Buffer ([1]; 1 min, single experiment): 14.548 mg/cm^2; Dissolution in Artificial Saliva ([1]; 3 min, single experiment): 42.192 mg/cm^2; Dissolution in pH 4.5 Acetate Buffer ([1]; 3 min, single experiment): 38.801 mg/cm^2; Dissolution in Artificial Saliva ([1]; 3.5 min, single experiment): 47.686 mg/cm^2; Dissolution in pH 4.5 Acetate Buffer ([1]; 3.5 min, single experiment): 51.432 mg/cm^2; Dissolution in Artificial Saliva ([1]; 4 min, single experiment): 53.878 mg/cm^2; Dissolution in pH 4.5 Acetate Buffer ([1]; 4 min, single experiment): 72.492 mg/cm^2; Dissolution in Artificial Saliva ([1]; 4.5 min, single experiment): 58.232 mg/cm^2; Dissolution in pH 4.5 Acetate Buffer ([1]; 4.5 min, single experiment): 89.739 mg/cm^2; IDR ([1]; artificial saliva, single experiment): 10.862 mg/cm^2/min; IDR ([1]; pH 4.5 acetate buffer, single experiment): 34.775 mg/cm^2/min
apomorphine methylbenzoate |  |  |  |  |  |  | <1 mg/mL | 
apomorphine sulfamate | 16.873 mg/cm^2/min |  | 19.598 mg/cm^2/min | 0.0% | 25.4% |  |  | DVS weight gain from 5 to 85% RH ([2]; sorption 5 to 85% RH): 1.0%
